Data on 1 compound can be found in ChEMBL document CHEMBL1137619, “Synthesis, structure-activity relationship and in vivo antiinflammatory efficacy of substituted dipiperidines as CCR2 antagonists” (J Med Chem, 2007).

Holding throughout (assay type): ADME, organism-based
Common to all, as to conditions: in vivo

Series [1] in a line: Bioavailability in rat at 10 mg/kg, po.
Series [2] is described as follows: Bioavailability in rat at 10 mg/kg, ip.
Series [3] is described as follows: Half life in rat at 10 mg/kg, po. Also noted: dose 10 mg/kg, route oral.

Structures are written as SMILES.

As usually defined, the bioavailability is the share of a dose that reaches the circulation, judged against a reference dose that is usually intravenous. High values mean much systemic uptake, low ones little systemic uptake. What is called half-life is the time in which the quantity being followed falls by half. A high value points to slow decline. For the compound `O=C(O)[C@H](C1CCN(C(=O)/C=C/c2cc(F)c(F)c(F)c2)CC1)N1CCC(c2c[nH]c3ccccc23)CC1`, the bioavailability in series [1] stood at 15%; in series [2], 100%. This compound also had a half-life in series [3] of 7 h.
